{
  "source": "patent USRE35801E",
  "about": "“Prophylactic and therapeutic composition for circulatory disorders and method of treatment” (priority 1985, dated 1998)",
  "key": {"mouse": {"test_system": "mouse", "conditions": "mouse intraperitoneal administration; cited from earlier work"}, "[1]": {"test_system": "drowsy pattern of electroencephalogram induced by phenobarbital or pentobarbital sodium salt", "assay": "Antagonistic action against drowsy pattern of electroencephalogram induced by phenobarbital or pentobarbital sodium salt", "format": "in vivo, Wistar-strain male rat", "conditions": "Rattus norvegicus; intravenous, sodium salt; drowsy EEG after PHB 30 mg/kg or PBT 5 mg/kg; read-out: Antagonistic action at dose or higher", "experimental": "(2) Antagonistic action against drowsy pattern of so electroencephalogram induced by phenobarbital or pentobarbital sodium salt\nA Wistar-strain male rat weighing about 400 g was intramasculary administered with 0.6 mg of d-tubocurarine to be immobilized and, while maintaining the rectal temperature at 37° to 38° C. under artificial respiration, the electroencephalogram of the left cerebral frontal cortex was measured and recorded. Also, within the left femoral artery and vein, cannulas for measurement of artery pressure and for administration of medicine were placed, respectively.\nAs the active ingredient of the present invention, sodium salt of the compound represented by Formula (I) was used and the respective doses of said active ingredient and 30 mg/kg of phenobarbital sodium salt (produced by Iwaki Seiyaku K.K.) (hereinafter called \"PHB\") or 5 mg/kg of pentobarbital sodium salt (hereinafter called PBT) were each dissolved in physiological saline and administered intravenously in a liquid amount of 1 ml/kg.\nThe action of the active ingredient of the present invention affecting the cortex electroencephalogram after PHB or PBT administration was investigated as follows; Namely, at the time of 5 minutes or later after PHB or PBT administration when increase of the slow-wave component can be clearly recognized on electroencephalogram, 1, 3, 10, 30 and 100 mg/kg of the active ingredient were administered. To the control group 1 ml/kg of physiological saline was intravenously administered.\nRecording and analysis of electroencephalogram were continuously drawn together with artery pressure, heart rate and rectal temperature on the recorder through a multi-purpose monitoring recording device (model RM-85, produced by Nippon Koden K.K.). At the same time, electroencephalogram was recorded in data recorder (model A-65, produced by Sony K.K.), and compressed spectral array analysis was conducted by means of a computer for medical data processing (ATAC-450, produced by Nippon Koden K.K.)."}, "rat": {"test_system": "rat", "conditions": "rat oral administration; cited from earlier work"}, "[2]": {"test_system": "cerebral ischemia recirculation model", "assay": "Protective action in cerebral ischemia recirculation model", "format": "in vivo, Wistar-strain male rat", "set-up": "key to Presence of electroencephalogram restoration / Judgement of action: The case when restoration of electroencephalogram is judged as +; case when not recognized as -", "experimental": "(3) Protective action in cerebral ischemia recirculation model\nA Wistar-strain male rat weighing about 400 g was administered intramascularly with 0.6 mg of di-tubocurarine to be immobilized and, after a trachea cannulation, the head portion was fixed under artificial respiration on a stereotaxic device. The head skin was cut open, cranial bone was bored, and then bipolar electrode for lead-out of electroencephalogram were placed on the surface of the subdural left frontal cerebral cortex. After the electrode was fixed with the cranial bone by use of dental cement, the animal was held on its back. Next, a cannula for measurement of systemic pressure was placed within the left femoral artery, and a cannula for additional administration of d-tubocurarine within the left femoral vein, respectively. The heart rate was measured and recorded by driving a heart rate meter with the artery wave.\nAfter blood pressure, heart rate and various parameters of electroencephalogram were stabilized, 10 mg/kg of the active ingredient of the present invention prepared in a suspension so as to give 1 ml/kg in 1% tragacanth gum solution was administered directly into duodenum […]. To the control group, only the 1% tragacanth gum solution of the same volume was administered similarly.\nTen to twenty minutes after administration of the medicine, while monitoring the electroencephalogram, blood pressure and heart rate on a multi-purpose monitoring recording device (RM-85 model, produced by Nippon Koden K.K.), the following operations were performed according to the methods shown below for cerebral ischemia loading.\nFirst, ribs were set free at the left costicartilage end to open the chest. Next, cerebral blood flow was blocked for ten minutes by obstructing the left common carotid artery and the left subclavian artery exposed at the aorta originating portion at the same time, and then the brachiocephalic trunk by use of artery clips 30 minutes after administration of the medicine.\nRecirculation of cerebral blood flow was effected by releasing at the same time the two artery clips mounted on the respective sites as mentioned above.\nThe protective action of the medicine for the disorder after recirculation of cerebral ischemia was examined by the presence of restoration of electroencephalogram, and survival time of animal after the recirculation.\nDuring the experiment, the rectal temperature of the animal was maintained at 37° to 38° C. by use of a warming mat. Also, the rectal temperature was continuously drawn on the recorder together with electroencephalogram, femoral artery pressure and heart rate."}, "[3]": {"conditions": "National Cancer Institute Report, 1978; cited from earlier work"}, "[4]": {"test_system": "lipid peroxidation (brain homogenate)", "assay": "Inhibitory action of lipid peroxidation in brain homogenate (TBA value)", "format": "biochemical", "conditions": "inhibition of lipid peroxidation, rat brain homogenate, 37° C., 30 minutes", "experimental": "(1) Inhibitory action of lipid peroxidation (a) Preparation of brain homogenate By use of Wister-strain male rat, brain homogenate was prepared following the procedure as described below. […] Next, a brain perfusion was conducted through the tube with ice-cooled 50 mM phosphate-buffered physiological saline (pH 7.4) hereinafter referred to as \"PBS\"), and the whole brain was extirpated. After removal of cerebellum, the wet weight of cerebrum was measured and, with addition of 9-fold amount of PBS, it was broken by a Teflon homogenizer in ice-water to be homogenized. After the brain homogenate was subjected to centrifugation at 4° C. at 2200 rpm for 10 minutes, 0.3 ml of the supernatant was apportioned into a light-shielding test tube equipped with a ground stopper, to provide a brain homogenate for evaluation of medicine. (b) Evaluation of test medicine To the brain homogenate produced in (a), 0.6 ml of PBS and 10 μl of ethanolic solution of a test medicine were added (to a final concentration of 500 μM or a concentration at a common ratio of 3 between 0.3 and 100 μm), and the mixture was heated in a warm bath at 37° C. for 30 minutes. […] Also, the same operation was performed by addition of 10 μl of ethanol (blank) in place of 10 μl ethanolic solution of the test medicine for measurement of blank. […] After shaking for about 30 seconds, the mixture was subjected to centrifugation at 3000 rpm for 10 minutes, and the supernatant was provided as a sample for measurement of peroxidized lipid."}, "[5]": {"test_system": "cerebral ischemia recirculation model", "assay": "Protective action in cerebral ischemia recirculation model", "format": "in vivo, Wistar-strain male rat", "set-up": "key to Judgement of action: The case when restoration of electroencephalogram is judged as +; case when not recognized as -", "conditions": "3 mg/kg"}},
  "note": "Values joined by “and” are separate entries in the source; they are usually repeats but may differ in a detail not shown here. Equal entries are not always repeated.",
  "data": [
    {"smiles": "CC1=NN(c2ccccc2)C(=O)C1", "note": "[Compound 1, 3-methyl-1-phenyl-2-pyrazolin-5-one]", "values": [
      {"measurement": "LD50", "setting": "mouse", "result": 2012, "unit": "mg/kg"},
      {"measurement": "minimal effective dose", "setting": "[1]", "result": "≥ 1", "unit": "mg/kg"},
      {"measurement": "LD50", "setting": "rat", "result": 3500, "unit": "mg/kg"},
      {"measurement": "Presence of electroencephalogram restoration", "setting": "[2]; 10 mg/kg into duodenum, 10 min cerebral ischemia (Table 3)", "result": "+"},
      {"measurement": "Survival time after recirculation, average", "setting": "[2]; 10 mg/kg, average", "result": 117, "unit": "min"},
      {"measurement": "Judgement of action", "setting": "[2]; 10 mg/kg, individual animal", "result": "+"},
      {"measurement": "Presence of electroencephalogram restoration", "setting": "[2]; 10 mg/kg, individual animal", "result": "+"},
      {"measurement": "Survival time after recirculation", "setting": "[2]; 10 mg/kg, individual animal", "result": "46 min and 140 min and 164 min"},
      {"measurement": "electroencephalogram restoration during recirculation period (in words)", "setting": "[2]; active ingredient group", "result": "electroencephalogram appeared by restoration during recirculation period depending on the dose of 3 to 10 mg/kg"},
      {"measurement": "survival time of animals after recirculation (in words)", "setting": "[2]; active ingredient group", "result": "clearly elongated"},
      {"measurement": "carcinogenicity", "setting": "[3]", "result": "free from carcinogenicity"},
      {"measurement": "IC50", "setting": "[4]", "result": 18.2, "unit": "µM"},
      {"measurement": "Survival time after recirculation, average", "setting": "[5]; average", "result": 106, "unit": "min"},
      {"measurement": "Judgement of action", "setting": "[5]; individual animal", "result": "+ and -"},
      {"measurement": "Survival time after recirculation", "setting": "[5]; individual animal", "result": "85 min and 126 min"}
    ]}
  ]
}
